According to US10478505B2, “Edible oils to enhance delivery of orally administered steroids” (The Regents of the University of California, priority 2011, dated 2019):
“Also recorded” adds a separate entry of the source.

What was measured:
NIH Swiss mice [1] = assay: Irwin Test behavioral scoring (sedation); format: in vivo, mouse; settings: 250 mg/kg in canola oil, oral
Method: (§1) NIH Swiss mice were fasted 2 hours prior to experiment participation. Allopregnanolone (ALP) was suspended in vehicle (Tween 80 or canola oil). The time point of maximal effect of ALP was established by gavaging ALP and scoring relevant behavioral parameters outlined in the Irwin Test. See, Sylvain Roux, et al., Current Protocols in Pharmacology, Unit Number: UNIT 10.10, DOI: 10.1002/0471141755.ph1010s27 Online Posting Date: January, 2005. Lethality, convulsion, tremor, Straub, abnormal gait, fear, sedation, reactivity to touch, loss of traction, loss of righting reflex were measured.

NIH Swiss mice [2] = assay: 6-Hz seizure test; format: in vivo, mouse; settings: dissolved in canola oil (10 mg/ml), 200 mg/kg, 32 mA for 3 s
Method: (§2) Animals. Male NIH Swiss mice (22-30 g) were housed four per cage. Animals were kept in a vivarium under controlled laboratory conditions (temperature, 22-26° C.; humidity, 40-50%) with an artificial 12-h light/dark cycle and free access to food and water. Animals were allowed to acclimate to the vivarium for ≥5 days. The experiments were performed during the light phase of the light/dark cycle after a ≥30-min period of acclimation to the experimental room. Animals were maintained in facilities fully accredited by the Association for Assessment and Accreditation of Laboratory Animal Care, and all studies were performed under protocols approved by the University of California, Davis, Institutional Animal Care and Use Committee the Animal Care and Use in strict compliance with the Guide for the Care and Use of Laboratory Animals of the National Research Council (National Academy Press, Washington, D.C.; on the internet at nap.edu/readingroom/books/labrats/).
Test substances and drug administration. Solutions of allopreganolone (SAFC Pharma, Madison, Wis., U.S.A.) were made in miglyol (Neobee M5®, Spectrum Chemicals, Gardena, Calif.), canola oil (ConAgra Foods, Omaha, Nebr.) or peanut oil (Sigma-Aldrich, St. Louis, Mo.). […]
6-Hz seizure test. […] Animals were scored as protected or not protected. […]

NIH Swiss mice [3] = assay: PTZ seizure threshold test (intravenous PTZ infusion); format: in vivo, mouse; settings: for anticonvulsant activity in the PTZ seizure threshold test (seizure threshold): 50 mg/kg (5 mg/ml) and 100 mg/kg (10 mg/ml)
Method: as §2
(§3) Test substances and drug administration. Solutions of allopreganolone (SAFC Pharma, Madison, Wis., U.S.A.) were made in miglyol (Neobee M5®, Spectrum Chemicals, Gardena, Calif.), canola oil (ConAgra Foods, Omaha, Nebr.) or peanut oil (Sigma-Aldrich, St. Louis, Mo.). The convulsant agent pentylenetetrazol (PTZ) (Sigma-Aldrich, St. Louis, Mo.) was dissolved in saline immediately before use and administered intravenously (i.v.). For the PTZ threshold test, allopregnanolone solutions were administered orally (p.o.) 30 min, 1 hr and 2 hr before PTZ infusion, in a volume equaling 10 ml/kg. For the 6-Hz seizure test, solutions of allopregnanolone in canola oil were administered in a volume equaling 20 ml/kg.
PTZ seizure threshold test. The threshold for various behavioral seizure stages induced by the GABA receptor antagonist PTZ, was determined by infusing PTZ via a 27-gauge, 0.75-inch “butterfly” needle inserted into the lateral tail vein. The needle was secured to the tail vein by a narrow piece of adhesive tape, and the animal was permitted to move freely inside an inverted plastic container with free aeration from the top. PTZ (10 mg/ml) were infused at a constant rate of 0.5 ml/min using a 1-ml syringe (BD Biosciences, Franklin Lakes, N.J.) mounted on a Harvard infusion pump (Harvard Apparatus Inc., Holliston, Mass.). The syringe was connected to the needle by polyethylene tubing. The infusion was stopped at 3 min or at the onset of tonic extension, whichever occurred first. The thresholds to the onset of tonic hindlimb extension were determined by measuring the latency from the start of convulsant infusion to the onset of all the response. The threshold value (milligrams per kilogram) was determined according to the following formula: (infusion duration [seconds]×infusion rate [milliliters per minute]×convulsant drug concentration [milligrams per milliliter]×1000)/(60 s×weight of mouse [grams]).

[4] = Central nervous system effects of allopregnanolone in aqueous hydroxypropyl-beta-cyclodextrin solution; format: in vivo
NIH Swiss mice [5] = assay: PTZ seizure challenge (80 mg/kg PTZ s.c.); format: in vivo, mouse
Method: as §1
Anticonvulsant potential of ALP was determined with PTZ seizure challenge. Oral gavage various ALP concentrations at 50 μl/10 g body weight, t=−45 min or t=−90 min, 80 mg/kg PTZ s.c. at t=0. Observe 30 min for seizure protection (absence of clonic spasms).

[6] = Dissolution of allopregnanolone in oils; format: physicochemical; settings: three oils: miglyol, canola oil, peanut oil
Method: as §3

[7] = oral delivery in canola oil (FIG. 4)

CC(=O)[C@H]1CCC2C3CC[C@H]4C[C@H](O)CC[C@]4(C)C3CC[C@@]21C (stereo in doubt) [allopregnanolone, 1-(3-Hydroxy-10,13-dimethyl-2,3,4,5,6,7,8,9,11,12,14,15,16,17-tetradecahydro-1H-cyclopenta[a]phenanthren-17-yl)ethanone]
sedation (NIH Swiss mice [1]): profound sedation | activity in the 6-Hz seizure test (NIH Swiss mice [2]): had activity | duration of anti-seizure activity (NIH Swiss mice [3]; dissolved in canola oil and peanut oil, oral route): long-lasting anti-seizure activity | anti-seizure activity 120 to 240 min after administration (NIH Swiss mice [3]; dissolved in canola oil or peanut oil, oral, 120 to 240 min after administration, in some cases): activity was also present | anti-seizure activity 30 min after administration (NIH Swiss mice [3]; dissolved in canola oil or peanut oil, oral, 30 min after administration): no or only minimal activity | anti-seizure activity 60 min after administration (NIH Swiss mice [3]; dissolved in canola oil or peanut oil, oral, 60 min after administration): strong activity | anticonvulsant activity in the PTZ seizure threshold test (seizure threshold) (NIH Swiss mice [3]; dissolved in canola oil, orally administered): activity was obtained; also recorded: time-dependent increase in seizure threshold | anticonvulsant activity in the PTZ seizure threshold test (NIH Swiss mice [3]; dissolved in miglyol, orally administered, 100 mg/kg): no bioactivity; also recorded: no activity; also recorded: inactive | anticonvulsant activity in the PTZ seizure threshold test (seizure threshold) (NIH Swiss mice [3]; dissolved in peanut oil, orally administered): activity was obtained; also recorded: time-dependent increase in seizure threshold | central nervous system effects ([4]; high doses administered orally in aqueous solution of hydroxypropyl-beta-cyclodextrin): failed to produce central nervous system effects | central nervous system effects ([4]; parenteral administration as aqueous solution in hydroxypropyl-beta-cyclodextrin): readily causes central nervous system effects | anticonvulsant activity in the pentylenetetrazol seizure test (NIH Swiss mice [5]; 250 mg/kg in canola oil, oral): anticonvulsant activity | effective threshold dose (NIH Swiss mice [5]; [7]): 25 to 75 mg/kg | oral bioavailability (NIH Swiss mice [5]; [7]): markedly enhances | dissolution in oils [6]: readily dissolve
